This note sets out measurements from US11279707B2, “NEK inhibitors and methods of use” (DANA-FARBER CANCER INSTITUTE, INC., priority 2017, dated 2022).

SMILES strings stand for the structures.

In general, IC50 refers to the midpoint of a concentration-inhibition curve. A low value points to inhibition by little substance.

Common to all, as to type: biochemical
For experiment [1], the target named is T1, NEK2 (Homo sapiens, UniProt P51955).
T1 sequence (P51955 1-445): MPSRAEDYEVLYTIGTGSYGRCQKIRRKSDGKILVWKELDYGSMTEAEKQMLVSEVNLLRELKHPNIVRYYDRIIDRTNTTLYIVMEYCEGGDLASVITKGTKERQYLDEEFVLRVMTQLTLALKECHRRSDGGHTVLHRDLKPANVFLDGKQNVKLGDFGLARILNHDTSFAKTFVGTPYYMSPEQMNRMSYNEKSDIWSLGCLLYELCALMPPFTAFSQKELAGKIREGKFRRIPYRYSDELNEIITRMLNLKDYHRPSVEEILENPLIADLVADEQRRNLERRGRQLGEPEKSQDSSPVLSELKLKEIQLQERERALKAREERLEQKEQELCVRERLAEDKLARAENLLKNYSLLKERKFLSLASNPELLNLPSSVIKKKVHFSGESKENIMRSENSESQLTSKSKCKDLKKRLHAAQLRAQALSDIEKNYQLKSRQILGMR
Put plainly: kinase inhibition, NEK2.

The target of experiment [2] is SLK (Homo sapiens, UniProt Q9H2G2). The experiment can be described thus: kinase inhibition, SLK.
Experiment [3] addresses GSK3B (Homo sapiens, UniProt P49841). Put plainly: kinase inhibition, GSK3B.
Experiment [4] addresses T2, MERTK (Homo sapiens, UniProt Q12866).
T2 sequence (Q12866 21-999): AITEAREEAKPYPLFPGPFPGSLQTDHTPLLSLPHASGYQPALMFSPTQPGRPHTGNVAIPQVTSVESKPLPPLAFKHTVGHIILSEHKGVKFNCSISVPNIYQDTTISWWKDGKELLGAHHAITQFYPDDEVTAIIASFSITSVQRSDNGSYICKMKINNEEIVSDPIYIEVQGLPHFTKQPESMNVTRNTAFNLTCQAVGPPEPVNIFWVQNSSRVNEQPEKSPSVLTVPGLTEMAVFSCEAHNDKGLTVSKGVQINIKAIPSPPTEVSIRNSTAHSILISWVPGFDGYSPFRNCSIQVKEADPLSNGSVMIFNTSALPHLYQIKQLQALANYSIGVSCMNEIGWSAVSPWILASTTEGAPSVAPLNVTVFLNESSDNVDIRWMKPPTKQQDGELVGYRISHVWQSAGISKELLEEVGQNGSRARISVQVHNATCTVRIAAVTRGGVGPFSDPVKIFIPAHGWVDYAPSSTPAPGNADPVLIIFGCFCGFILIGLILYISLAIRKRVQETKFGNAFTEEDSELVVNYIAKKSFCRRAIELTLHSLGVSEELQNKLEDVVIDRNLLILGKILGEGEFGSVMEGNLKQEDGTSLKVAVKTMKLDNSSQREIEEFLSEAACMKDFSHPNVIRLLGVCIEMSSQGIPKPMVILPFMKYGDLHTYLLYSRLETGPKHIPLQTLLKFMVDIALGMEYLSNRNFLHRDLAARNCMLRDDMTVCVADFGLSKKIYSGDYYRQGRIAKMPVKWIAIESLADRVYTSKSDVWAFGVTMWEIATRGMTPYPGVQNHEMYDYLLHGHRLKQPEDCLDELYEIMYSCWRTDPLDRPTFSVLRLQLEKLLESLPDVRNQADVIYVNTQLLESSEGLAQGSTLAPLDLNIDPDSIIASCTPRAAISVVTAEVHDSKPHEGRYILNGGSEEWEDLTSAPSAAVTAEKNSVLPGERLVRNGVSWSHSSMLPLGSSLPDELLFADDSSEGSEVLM
The experiment can be described thus: kinase inhibition, MERTK.

In experiment [5] the target is T3, AXL (Homo sapiens, UniProt P30530).
T3 sequence (P30530 26-894): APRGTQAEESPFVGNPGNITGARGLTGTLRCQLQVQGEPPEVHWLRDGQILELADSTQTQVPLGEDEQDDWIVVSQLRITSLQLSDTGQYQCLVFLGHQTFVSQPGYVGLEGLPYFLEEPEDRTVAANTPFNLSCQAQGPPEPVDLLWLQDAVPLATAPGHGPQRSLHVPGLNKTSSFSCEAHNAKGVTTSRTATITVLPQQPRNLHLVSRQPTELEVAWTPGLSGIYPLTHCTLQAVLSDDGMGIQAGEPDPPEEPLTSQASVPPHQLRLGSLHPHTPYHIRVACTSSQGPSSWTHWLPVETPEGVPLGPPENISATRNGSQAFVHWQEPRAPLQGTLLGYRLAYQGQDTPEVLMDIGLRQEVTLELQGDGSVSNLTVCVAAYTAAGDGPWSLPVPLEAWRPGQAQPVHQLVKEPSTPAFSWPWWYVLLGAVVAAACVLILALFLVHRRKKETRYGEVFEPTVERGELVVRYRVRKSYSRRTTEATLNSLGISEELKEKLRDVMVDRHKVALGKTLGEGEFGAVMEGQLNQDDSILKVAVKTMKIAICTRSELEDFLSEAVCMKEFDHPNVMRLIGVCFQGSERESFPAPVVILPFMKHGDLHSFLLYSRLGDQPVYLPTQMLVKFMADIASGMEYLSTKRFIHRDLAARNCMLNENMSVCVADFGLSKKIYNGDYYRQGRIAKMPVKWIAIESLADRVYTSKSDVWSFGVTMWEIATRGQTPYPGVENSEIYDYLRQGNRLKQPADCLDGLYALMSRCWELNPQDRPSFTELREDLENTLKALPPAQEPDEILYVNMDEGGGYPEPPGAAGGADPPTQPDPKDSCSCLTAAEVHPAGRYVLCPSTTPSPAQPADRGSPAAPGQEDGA
Put plainly: kinase inhibition, AXL.

Experiment [6] concerns the target T4, DRAK1 (Homo sapiens, UniProt Q9UEE5).
T4 sequence (Q9UEE5 1-414): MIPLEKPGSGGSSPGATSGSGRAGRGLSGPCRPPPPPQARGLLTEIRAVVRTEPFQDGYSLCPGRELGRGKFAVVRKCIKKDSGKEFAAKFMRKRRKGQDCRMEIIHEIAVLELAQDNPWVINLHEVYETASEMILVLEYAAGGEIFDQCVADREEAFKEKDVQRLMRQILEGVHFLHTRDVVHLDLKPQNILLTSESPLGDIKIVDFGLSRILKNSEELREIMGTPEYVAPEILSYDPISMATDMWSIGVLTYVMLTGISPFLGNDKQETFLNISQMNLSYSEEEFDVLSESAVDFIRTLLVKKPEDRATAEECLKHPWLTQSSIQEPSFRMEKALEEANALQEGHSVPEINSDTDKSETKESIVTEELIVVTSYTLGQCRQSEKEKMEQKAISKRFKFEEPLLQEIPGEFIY
Put plainly: kinase inhibition, DRAK1.

SLK, sequence (Q9H2G2 whole entry): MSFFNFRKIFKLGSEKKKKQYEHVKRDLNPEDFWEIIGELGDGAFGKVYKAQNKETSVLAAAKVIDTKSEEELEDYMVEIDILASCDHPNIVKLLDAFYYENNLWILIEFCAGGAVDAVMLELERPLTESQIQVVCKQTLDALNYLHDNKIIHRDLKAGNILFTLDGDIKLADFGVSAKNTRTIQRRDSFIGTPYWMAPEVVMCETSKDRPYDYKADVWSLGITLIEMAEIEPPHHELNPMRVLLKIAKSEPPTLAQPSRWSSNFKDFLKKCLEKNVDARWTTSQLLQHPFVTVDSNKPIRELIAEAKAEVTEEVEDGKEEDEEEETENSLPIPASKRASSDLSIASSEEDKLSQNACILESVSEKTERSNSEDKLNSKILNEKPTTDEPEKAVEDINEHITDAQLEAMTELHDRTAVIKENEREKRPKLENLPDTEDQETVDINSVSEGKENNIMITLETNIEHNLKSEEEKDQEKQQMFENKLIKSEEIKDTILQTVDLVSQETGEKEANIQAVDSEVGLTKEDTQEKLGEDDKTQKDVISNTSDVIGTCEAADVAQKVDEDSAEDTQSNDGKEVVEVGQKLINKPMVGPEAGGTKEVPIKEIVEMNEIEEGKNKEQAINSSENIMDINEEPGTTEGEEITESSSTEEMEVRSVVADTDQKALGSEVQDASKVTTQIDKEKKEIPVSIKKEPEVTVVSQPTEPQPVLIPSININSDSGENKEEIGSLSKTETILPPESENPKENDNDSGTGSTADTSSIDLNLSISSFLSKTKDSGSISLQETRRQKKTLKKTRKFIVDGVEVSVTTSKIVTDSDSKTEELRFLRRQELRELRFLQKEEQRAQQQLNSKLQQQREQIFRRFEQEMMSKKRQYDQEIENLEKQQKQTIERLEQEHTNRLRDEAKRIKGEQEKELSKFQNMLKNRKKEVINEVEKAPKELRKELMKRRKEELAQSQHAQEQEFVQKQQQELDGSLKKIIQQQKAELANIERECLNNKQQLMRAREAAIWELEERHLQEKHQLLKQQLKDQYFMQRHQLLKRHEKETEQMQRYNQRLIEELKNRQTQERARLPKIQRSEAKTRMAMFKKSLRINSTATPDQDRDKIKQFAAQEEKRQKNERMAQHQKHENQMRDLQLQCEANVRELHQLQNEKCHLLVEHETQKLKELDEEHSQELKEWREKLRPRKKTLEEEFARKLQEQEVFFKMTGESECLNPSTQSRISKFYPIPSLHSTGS
GSK3B, sequence (P49841 whole entry, species assumed): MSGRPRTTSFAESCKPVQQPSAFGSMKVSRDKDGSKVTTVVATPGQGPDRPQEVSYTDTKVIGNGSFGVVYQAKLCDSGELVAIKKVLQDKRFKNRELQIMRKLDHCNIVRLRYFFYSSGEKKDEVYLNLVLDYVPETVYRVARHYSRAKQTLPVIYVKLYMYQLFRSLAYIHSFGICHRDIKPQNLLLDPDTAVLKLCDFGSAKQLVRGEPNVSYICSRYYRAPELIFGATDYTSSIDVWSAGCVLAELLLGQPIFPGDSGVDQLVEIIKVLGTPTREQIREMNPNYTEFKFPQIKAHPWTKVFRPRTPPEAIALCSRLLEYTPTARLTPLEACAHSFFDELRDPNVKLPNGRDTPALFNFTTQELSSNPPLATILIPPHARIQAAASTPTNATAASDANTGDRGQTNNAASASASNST

As for `COc1cc(C2CCN(C)CC2)ccc1Nc1ncc2c(n1)n1c(cc3ccccc31)c(=O)n2C` [Compound I-6], the IC50 in experiment [1] was no more than 0.05 µM; in experiment [2] it was 1 to 5 µM; in experiment [3], no less than 5 µM; in experiment [4], no less than 5 µM; in experiment [5], 1 to 5 µM; in experiment [6] it was 0.25 to 1 µM.
Take `CN1CCN(c2ccc(Nc3ncc4c(n3)n3c(cc5ccccc53)c(=O)n4C)cc2C(F)(F)F)CC1` [Compound I-5]: the IC50 is 0.05 to 0.25 µM in experiment [1]; 0.25 to 1 µM in experiment [2]; no less than 5 µM in experiment [3]; 1 to 5 µM in experiment [4]; 1 to 5 µM in experiment [5]; 0.25 to 1 µM in experiment [6].
As for `COc1cc(N2CCC(O)CC2)ccc1Nc1ncc2c(n1)n1c(cc3ccccc31)c(=O)n2C` [Compound I-2], the IC50 was 0.05 to 0.25 µM in experiment [1]; 1 to 5 µM in experiment [2]; 1 to 5 µM in experiment [3]; no less than 5 µM in experiment [4]; no less than 5 µM in experiment [5]; 0.05 to 0.25 µM in experiment [6].
For the compound `COc1cc(C(=O)N2CCC(N3CCN(C)CC3)CC2)ccc1Nc1ncc2c(n1)n1c(cc3ccccc31)c(=O)n2C` [Compound I-4], the half-maximal inhibitory concentration (IC50) in experiment [1] is 0.05 to 0.25 µM; in experiment [2] it was 1 to 5 µM; in experiment [3], no less than 5 µM; in experiment [4], no less than 5 µM; in experiment [5], no less than 5 µM; in experiment [6], 1 to 5 µM.
With `CN1CCN(c2ccc(Nc3ncc4c(n3)n3c(cc5ccccc53)c(=O)n4C)cc2)CC1` [Compound I-1], the IC50 in experiment [1] was no more than 0.05 µM; in experiment [2], 0.05 to 0.25 µM; in experiment [3], 0.25 to 1 µM; in experiment [4], 0.25 to 1 µM; in experiment [5] it was 0.05 to 0.25 µM; in experiment [6], 0.05 to 0.25 µM.
Turning to `COc1cc(N2CCN(C)CC2)ccc1Nc1ncc2c(n1)n1c(cc3ccccc31)c(=O)n2C` [Compound I-3], the IC50 in experiment [1] was 0.05 to 0.25 µM; in experiment [2], 1 to 5 µM; in experiment [3] it was 1 to 5 µM; in experiment [4], no less than 5 µM; in experiment [5], no less than 5 µM; in experiment [6], 0.05 to 0.25 µM.
